Data on 40 compounds can be found in patent publication US20120258960A1, “NOVEL MULTIFUNCTIONAL PEPTIDASE INHIBITORS, ESPECIALLY FOR MEDICAL USE” (IMTM GMBH, priority 2009, published 2012).

SMILES strings stand for the structures.

One experiment deals with T lymphocytes. The experiment can be described thus: Inhibition of proliferation of PHA-stimulated T lymphocytes (tritium thymidine incorporation). In kind it is cell-based. The conditions noted are these: Homo sapiens, T-lymphocyte, 1 μg/ml Phytohemagglutinine, 48 hours, test compounds 0.1-250 μM, read-out: T cells IC50. How it is done: (§1) Peripheral blood mononuclear cells (PBMC) from healthy human volunteers were freshly isolated by density gradient centrifugation. T lymphocytes (T cells, Tc) were isolated from PBMC fractions via nylon wool adherence. Cells were cultured in standard cell culture media and stimulated by addition of 1 μg/ml Phytohemagglutinine for 48 hours in 96 well flat-bottom microtitre plates. Test compounds were added at concentration ranges from 0.1-250 μM over the total assay period.
DNA synthesis of proliferating T cells was determined by incorporation of radio labelled tritium thymidine and subsequent radio detection.
(§2) Data output was based on raw data and calculation of relative proliferation response in relation to PHA-activated T cells in the absence of test compound (100% control).
(§3) The […] value of proliferation suppression was assessed by graphical evaluation.

The test system of experiment [1] is human peripheral blood mononuclear cells. Kind of experiment: Inhibition of proliferation of PHA-stimulated mononuclear cells (BrdU incorporation). The conditions noted are these: PBMC, 1 μg/ml Phytohemagglutinine, 48 hours, test compounds 0.1-250 μM, read-out: MNC IC50. In kind it is cell-based. As to the method: as §1
DNA synthesis of proliferating PBMC was assessed by incorporation of nucleotide analogue bromdesoxyuridine (BrdU) and subsequent detection of optical density (OD) at 450 nm.
as §2, §3

Experiment [2] concerns the target purified, recombinant human DPIV (Homo sapiens, UniProt P27487). Kind of experiment: Measurement of DPIV activity (fluorogenic substrate (Ala-Pro)2-R110).
Protocol: The enzymatic activity of DPIV was assessed by the hydrolysis of the fluorogenic substrate bis-(L-alanyl-prolyl)-Rhodamin-110 (bis-trifluoracetate, abbreviation (Ala-Pro)2-R110). The final substrate concentration was 0.5 μM.
The assay was performed in white microtitre plates for fluorescence measurements. The test items, substrate and enzyme were diluted in assay buffer. […] As controls, the DPIV activity in the absence of test items as well as the spontaneous hydrolysis of the substrate was determined.
Experiment [3] has as its target human recombinant Aminopeptidase N (Homo sapiens, UniProt P15144). Kind of experiment: Measurement of APN activity (fluorogenic substrate (Ala)2-R110). Format: biochemical. The conditions noted are these: human recombinant APN approx. 5 nM, substrate 0.5 μM, pH 7.5. How it is done: Inhibitory effects of test items on the enzymatic activity of human recombinant Aminopeptidase N (final concentration approx. 5 nM) were assessed by using the fluorogenic substrate bis-(L-alanyl)-Rhodamine-110 (bis-trifluoracetate, abbreviation (Ala)2-R110) at a final concentration of 0.5 μM. The assay was performed in 0.05 M TRIS/HCl buffer pH 7.5, supplemented with 0.05% Triton (v/v), 0.05% BSA (w/v), 2 mM MgCl2.
The assay was performed in white microtitre plates for fluorescence measurements.
As controls, (Ala)2-R110 hydrolyzing activity in the absence of any test item as well as the spontaneous substrate hydrolysis was determined.
The release of the fluorescent hydrolysis product Rhodamine 110 was measured at an excitation wavelength of 485 nm and an emission wavelength of 530 nm by using a microtitre fluorescence reader immediately after substrate addition as well as after 30, 60 and 120 min.

One may read the IC50 as the concentration that inhibits the measured activity by half.

human recombinant Aminopeptidase N, sequence (P15144 whole entry): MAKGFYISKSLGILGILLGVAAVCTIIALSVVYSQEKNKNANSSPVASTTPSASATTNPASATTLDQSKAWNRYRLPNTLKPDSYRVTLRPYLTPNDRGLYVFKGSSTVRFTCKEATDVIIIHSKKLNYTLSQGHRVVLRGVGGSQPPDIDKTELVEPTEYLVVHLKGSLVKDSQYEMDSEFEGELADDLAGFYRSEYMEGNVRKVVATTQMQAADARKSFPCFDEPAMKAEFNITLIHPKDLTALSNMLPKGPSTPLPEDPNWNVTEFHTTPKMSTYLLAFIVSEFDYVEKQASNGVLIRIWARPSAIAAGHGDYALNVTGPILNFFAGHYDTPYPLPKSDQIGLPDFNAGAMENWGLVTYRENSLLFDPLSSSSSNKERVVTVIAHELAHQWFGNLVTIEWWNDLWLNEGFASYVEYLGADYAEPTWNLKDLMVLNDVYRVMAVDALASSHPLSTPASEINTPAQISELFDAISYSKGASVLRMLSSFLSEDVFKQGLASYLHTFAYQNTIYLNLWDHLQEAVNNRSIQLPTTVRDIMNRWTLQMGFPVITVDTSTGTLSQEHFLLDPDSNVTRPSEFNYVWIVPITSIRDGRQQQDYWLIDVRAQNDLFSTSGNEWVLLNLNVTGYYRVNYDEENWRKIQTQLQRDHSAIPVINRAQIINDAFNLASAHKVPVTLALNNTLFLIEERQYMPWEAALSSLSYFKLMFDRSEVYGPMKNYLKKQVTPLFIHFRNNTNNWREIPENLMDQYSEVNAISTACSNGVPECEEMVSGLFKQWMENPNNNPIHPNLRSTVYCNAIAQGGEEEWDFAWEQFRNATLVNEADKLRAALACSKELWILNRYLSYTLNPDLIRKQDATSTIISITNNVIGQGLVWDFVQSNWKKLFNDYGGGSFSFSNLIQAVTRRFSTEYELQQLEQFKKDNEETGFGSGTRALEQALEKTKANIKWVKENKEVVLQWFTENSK
purified, recombinant human DPIV, sequence (P27487 whole entry): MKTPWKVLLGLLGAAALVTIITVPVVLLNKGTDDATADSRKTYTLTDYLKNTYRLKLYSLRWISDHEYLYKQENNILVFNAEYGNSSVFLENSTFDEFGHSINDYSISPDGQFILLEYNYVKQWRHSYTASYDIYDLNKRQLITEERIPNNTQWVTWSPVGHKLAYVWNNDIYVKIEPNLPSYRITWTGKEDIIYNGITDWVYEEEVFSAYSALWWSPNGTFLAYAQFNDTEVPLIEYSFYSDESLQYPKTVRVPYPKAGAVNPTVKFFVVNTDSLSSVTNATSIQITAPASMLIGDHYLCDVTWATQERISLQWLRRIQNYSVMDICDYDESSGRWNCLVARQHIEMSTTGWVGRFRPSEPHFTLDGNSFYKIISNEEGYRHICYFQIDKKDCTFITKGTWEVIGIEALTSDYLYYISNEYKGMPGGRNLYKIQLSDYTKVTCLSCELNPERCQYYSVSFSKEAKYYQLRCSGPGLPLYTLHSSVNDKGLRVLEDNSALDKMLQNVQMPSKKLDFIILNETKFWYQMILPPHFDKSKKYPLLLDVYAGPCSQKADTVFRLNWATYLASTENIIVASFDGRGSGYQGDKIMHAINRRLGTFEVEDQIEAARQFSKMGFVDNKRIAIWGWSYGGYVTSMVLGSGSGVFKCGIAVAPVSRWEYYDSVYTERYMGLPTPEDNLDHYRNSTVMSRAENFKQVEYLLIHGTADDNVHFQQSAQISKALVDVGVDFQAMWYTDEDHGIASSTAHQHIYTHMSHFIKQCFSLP

With `CN(CCCNC(=O)OCc1ccccc1)C(=O)C(O)C(N)Cc1ccccc1` (stereo not drawn) [drawing 278], the IC50 with T lymphocytes was ≥ 200 µM; in experiment [1], 149 µM.

With `CC(C)(CNC(=O)CC(N)Cc1cc(F)ccc1F)CNC(=O)C(O)C(N)Cc1ccccc1` (stereo not drawn) [drawing 232], the IC50 with T lymphocytes was ≥ 200 µM; in experiment [1] it was 200 µM.

In the case of `CN(CCCN(C)C(=O)C(O)C(N)Cc1ccccc1)C(=O)CC(N)Cc1cc(F)ccc1F` (stereo not drawn) [drawing 238], the IC50 in the experiment with T lymphocytes was 70 µM; in experiment [1], 122 µM.

Consider `NC(CC(=O)N1CCN(C(=O)C(O)C(N)Cc2ccccc2)CC1)Cc1ccccc1` (stereo not drawn) [drawing 223], for which the values for the IC50 (with T lymphocytes; in experiment [1]) were 157 µM and 140 µM, respectively.

Consider `NC(CC(=O)NCC1(CNC(=O)C(O)C(N)Cc2ccccc2)CCCCC1)Cc1cc(F)ccc1F` (stereo not drawn) [drawing 273], for which the figures for the IC50 (with T lymphocytes; in experiment [1]) were 7 µM and 7.4 µM, respectively.

For the compound `CCCCCCCC(=O)OC(C(=O)N(C)CCCNC(=O)CC(N)Cc1cc(F)ccc1F)C(N)Cc1ccccc1` (stereo not drawn) [drawing 250], the IC50 was 9.5 µM with T lymphocytes and 11.1 µM in experiment [1].

Turning to `NC(CC(=O)NCCCCCCNC(=O)C(O)C(N)Cc1ccccc1)Cc1ccccc1` (stereo not drawn) [drawing 234], the IC50 in experiment [1] stood at 200 µM.

With `CC(C(=O)NCC(C)(C)CNC(=O)C(O)C(N)Cc1ccccc1)C(N)Cc1cc(F)ccc1F` (stereo not drawn) [drawing 266], the IC50 stood at 38.9 µM in the experiment with T lymphocytes and 41.6 µM in experiment [1].

With `CCCCCCCCCCCCCCCC(=O)OC(C(=O)NCC(C)(C)CNC(=O)CC(N)Cc1cc(F)ccc1F)C(N)Cc1ccccc1` (stereo not drawn) [drawing 249], the IC50 in the experiment on T lymphocytes was 34.4 µM; in experiment [1], 35.8 µM.

With `CCCCCCCCCC(=O)OC(C(=O)NCC(C)(C)CNC(=O)CC(N)Cc1cc(F)ccc1F)C(N)Cc1ccccc1` (stereo not drawn) [drawing 254], the results for the concentration for half-maximal inhibition (IC50) (in the experiment on T lymphocytes; in experiment [1]) were 3.1 µM and 2.5 µM, respectively.

In the case of `CCCCCCCC(=O)OC(C(=O)NCCCCNC(=O)CC(N)Cc1cc(F)ccc1F)C(N)Cc1ccccc1` (stereo not drawn) [drawing 256], the half-inhibitory concentration (IC50) amounted to 19 µM in the experiment with T lymphocytes and 10.6 µM in experiment [1].

For `NC(CC(=O)N1CCN(C(=O)CC(O)C(N)Cc2ccccc2)CC1)Cc1ccccc1` (stereo not drawn) [drawing 222], the concentration for half-maximal inhibition (IC50) was found to be 157 µM with T lymphocytes and 135 µM in experiment [1].

For `CC(C)(CNC(=O)CC(N)Cc1cc(F)ccc1F)CNC(=O)C(OC(=O)CCCc1ccccc1)C(N)Cc1ccccc1` (stereo not drawn) [drawing 255], the IC50 with T lymphocytes came out at 3 µM; in experiment [1], 2.5 µM.

Consider `CCCCCC(=O)OC(C(=O)NCC(C)(C)CNC(=O)CC(N)Cc1cc(F)ccc1F)C(N)Cc1ccccc1` (stereo not drawn) [drawing 261], for which the IC50 was 11.3 µM in the experiment on T lymphocytes and 14.3 µM in experiment [1].

For `NC(CC(=O)Nc1cccc(NC(=O)C(O)C(N)Cc2ccccc2)c1)Cc1cc(F)ccc1F` (stereo not drawn) [drawing 270], the IC50 with T lymphocytes worked out at 9.4 µM; in experiment [1] it was 9.1 µM.

`NC(CC(=O)NCCCCCNC(=O)C(O)C(N)Cc1ccccc1)Cc1ccccc1` (stereo not drawn) [drawing 233]: the half-maximal inhibitory concentration (IC50) in the experiment on T lymphocytes was ≥ 200 µM; in experiment [1] it was 200 µM.

With `NC(CC(=O)NCCCNC(=O)C(O)C(N)Cc1ccccc1)Cc1cc(F)ccc1F` (stereo not drawn) [drawing 237], the concentration for half-maximal inhibition (IC50) is 70 µM in the experiment with T lymphocytes and 122 µM in experiment [1].

As for `NC(CC(=O)NCCNC(=O)C(O)C(N)Cc1ccccc1)Cc1ccc2ccccc2c1` (stereo not drawn) [drawing 219], the IC50 with T lymphocytes came to 34 µM; in experiment [1] it was 30.4 µM.

As for `NC(CC(=O)NCCCCNC(=O)C(O)C(N)Cc1ccccc1)Cc1cc(F)ccc1F` (stereo not drawn) [drawing 231], the IC50 with T lymphocytes was ≥ 200 µM; in experiment [1] it was 134 µM.

As to `CCCCCCCCCCCCCCCCNC(CC(=O)NCC(C)(C)CNC(=O)C(O)C(Cc1ccccc1)NCCCCCCCCCCCCCCCC)Cc1cc(F)ccc1F` (stereo not drawn) [drawing 272], the IC50 turned out to be 11 µM in the experiment with T lymphocytes and 10 µM in experiment [1].

Take `CCC(CC)(CNC(=O)CC(N)Cc1cc(F)ccc1F)CNC(=O)C(O)C(N)Cc1ccccc1` (stereo not drawn) [drawing 265]: the IC50 with T lymphocytes amounted to 7.2 µM.

For `CN(CCCNC(=O)CC(N)Cc1cc(F)ccc1F)C(=O)C(O)C(N)Cc1ccccc1` (stereo not drawn) [drawing 246], the IC50 in the experiment on T lymphocytes is ≥ 200 µM.

As for `CCCCCC(=O)OC(C(=O)NCC(C)(C)CNC(=O)CC(N)Cc1cc(F)ccc1F)C(N)Cc1ccccc1` (stereo not drawn) [drawing 55], the IC50 came out at 0.03 µM in experiment [2] and 1.9 µM in experiment [3].

On to `CC(C)(CNC(=O)C(O)C(N)Cc1ccccc1)CNC(=O)C(CC(=O)O)C(N)Cc1cc(F)ccc1F` (stereo not drawn) [drawing 262], for which the IC50 in the experiment with T lymphocytes is 88.3 µM.

Turning to `C[C@@H]1CN(C(=O)CC(O)C(N)Cc2ccccc2)C[C@H](C)N1C(=O)CC(N)Cc1ccccc1` (stereo partly drawn) [drawing 19], the IC50 was 0.28 µM in experiment [2] and 22 µM in experiment [3].

With `CCCCCCCC(=O)NC(CC(=O)NCC(C)(C)CNC(=O)C(O)C(Cc1ccccc1)NC(=O)CCCCCCC)Cc1cc(F)ccc1F` (stereo not drawn) [drawing 33], the IC50 in experiment [2] and in experiment [3] was > 50 µM in each case.

Regarding `CN(CCCN(C)C(=O)C(O)C(N)Cc1ccccc1)C(=O)CC(N)Cc1cc(F)ccc1F` (stereo not drawn) [drawing 32], the IC50 in experiment [2] worked out at 0.178 µM; in experiment [3] it was 8.5 µM.

As for `CN(CCCNC(=O)C(O)C(N)Cc1ccccc1)C(=O)CC(N)Cc1cc(F)ccc1F` (stereo not drawn) [drawing 37], the IC50 in experiment [2] was 0.072 µM; in experiment [3] it was 0.7 µM.

As to `CC(C)(CNC(=O)CC(N)Cc1cc(F)ccc1F)CNC(=O)C(O)C(N)Cc1ccc(-c2ccsc2)cc1` (stereo not drawn) [drawing 74], the IC50 in experiment [2] was determined as 0.1 µM; in experiment [3], 0.001 µM.

Take `CCCCCCCCCCCCCC(=O)NC(CC(=O)NCC(C)(C)CNC(=O)C(O)C(Cc1ccccc1)NC(=O)CCCCCCCCCCCCC)Cc1cc(F)ccc1F` (stereo not drawn) [drawing 264]: the IC50 in the experiment with T lymphocytes was determined as 98.7 µM.

Take `CCC(CC)(CNC(=O)CC(N)Cc1ccccc1)CNC(=O)C(O)C(N)Cc1ccccc1` (stereo not drawn) [drawing 22]: the figures for the IC50 in experiment [2] and in experiment [3] were 2.6 µM and 2.8 µM, respectively.

In the case of `CCCCCCCCOC(C(=O)NCC(C)(C)CNC(=O)CC(N)Cc1cc(F)ccc1F)C(N)Cc1ccccc1` (stereo not drawn), the IC50 in experiment [2] is 14 µM; in experiment [3], > 50 µM.

As to `CC(C)(CNC(=O)CC(N)Cc1cc(F)ccc1F)CNC(=O)C(OC(=O)CCCc1ccccc1)C(N)Cc1ccccc1` (stereo not drawn) [drawing 49], the 50% inhibitory concentration (IC50) in experiment [2] stood at 0.3 µM; in experiment [3], 15 µM.

As for `NC(CC(=O)NC1CCCC(NC(=O)C(O)C(N)Cc2ccccc2)C1)Cc1cc(F)ccc1F` (stereo not drawn) [drawing 63], the results for the IC50 in experiment [2] and in experiment [3] were 0.12 µM and 0.03 µM, respectively.

As for `NC(CNC(=O)c1cccc(NC(=O)C(O)C(N)Cc2ccccc2)c1)Cc1cc(F)ccc1F` (stereo not drawn) [drawing 71], the IC50 was 1.7 µM in experiment [2] and 0.009 µM in experiment [3].

In the case of `CC(C)(CNC(=O)CC(N)Cc1cc(F)ccc1F)CNC(=O)C(O)C(N)Cc1ccc(-c2ccccc2)cc1` (stereo not drawn) [drawing 75], the IC50 in experiment [2] was 0.1 µM; in experiment [3] it was 0.346 µM.

Regarding `CCCCCCCCCCCCCC(=O)OC(C(=O)NCC(C)(C)CNC(=O)CC(N)Cc1cc(F)ccc1F)C(N)Cc1ccccc1` (stereo not drawn) [drawing 46], the IC50 in experiment [2] is 1 µM; in experiment [3], 21 µM.

Consider `NC(CC(=O)N1CCCN(C(=O)C(O)C(N)Cc2ccccc2)CC1)Cc1cc(F)ccc1F` (stereo not drawn) [drawing 65], for which the 50% inhibitory concentration (IC50) amounted to 0.07 µM in experiment [2] and 10 µM in experiment [3].

Consider `NC(CC(=O)NCC1(CNC(=O)C(O)C(N)Cc2ccccc2)CCCC1)Cc1cc(F)ccc1F` (stereo not drawn) [drawing 68], for which the IC50 in experiment [2] was 0.16 µM; in experiment [3], 0.08 µM.

Regarding `CCCCCCCCCCCCCCCCNC(CC(=O)NCC(C)(C)CNC(=O)C(O)C(Cc1ccccc1)NCCCCCCCCCCCCCCCC)Cc1cc(F)ccc1F` (stereo not drawn) [drawing 66], the IC50 in experiment [2] and in experiment [3] was > 50 µM in each case.
